Reference: patent US9795593B2, “Use of 3-(3-[1,2,4]-triazolo)-oxatriazolium-5-olate for treating sexual disorders” (LIMITED LIABILITY COMPANY “KONSORTSIUM-PIK”, priority 2014, dated 2017)
Marks after values point to notes of the source that are not given here.

Assays:
nitric oxide (NO) = experiment: Serum unbound nitric oxide (spectrophotometry, Griss reagent) in the model of arterial hypertension with endothelial dysfunction; assay type: in vivo, rat; conditions: for NO: rat serum at the end of experiment, M ± m, n = 8
Method: (§1) In the model of arterial hypertension with endothelial dysfunction, endothelial NOS blocker N-nitro-L-arginine methyl ester (L-NAME) was administered intraperitoneally, 25 mg/kg, daily, for 7 days. The blocker was administered in 3% sodium chloride in the dose 1 ml/100 g of body weight. This combination of NO-synthase inhibitor with hypertonic solution provides RAAS activation, aldosterone discharge, retention of sodium and water, functional impairment of the vascular endothelium.
(§2) The animals were divided into the arms as follows: 1—intact animals; 2—control group, males (L-NAME+NaCl; physiological saline as placebo); 3—male rats that received AS-6 in the dose 0.5 mg/kg (Dose 1); 4—male rats that received AS-6 in the dose 5 mg/kg (Dose 2); 5—male rats that received AS-6 in the dose 10 mg/kg (Dose 3); 6—virgin female rats (only in the assessment of the sexual activity). Each group included 8 animals.
(§3) Biochemical parameters were assessed with the use of prearranged kits (USCN Life Science Inc., USA, Bender MedSystems GmbH, Austria, R&D Systems, USA). The measurement was performed with the use of multifunctional photometer Synergy-2 (BioTek Instruments, Inc., USA). All studies were conducted in compliance with current laboratory regulations.
(§4) The assessment of endothelin-1, vascular endothelial growth factor and nitric oxide levels was performed in the rats' serum at the end of experiment with the use of immuno-enzyme analysis and spectrophotometric analysis with species-specific (rat-specific) antibodies.
Quantitative measurement of unbound nitric oxide was performed with the use spectrophotometry with R&D Systems kits (USA). The proteins were precipitated with zinc sulphate/sodium hydroxide. Serum supernatant samples of the experimental animals (50 mcL) and standards of known concentrations were introduced into the plate wells. Then, 50 mcL of sample diluent, Griss reagent 1 and Griss reagent 2 were added. The reaction was read at 540 and 690 nm after 10-minute incubation at 37° C.

endothelin-1 (ET-1) = experiment: Serum endothelin-1 (ELISA) in the model of arterial hypertension with endothelial dysfunction; assay type: in vivo, rat; conditions: for ET-1: rat serum at the end of experiment, M ± m, n = 8
Method: as §1, §2, §3, §4
Quantitative measurement of endothelin-1 (ET-1) was performed with the use of ELISA with USCN Life Science Inc. (USA) kits. Serum samples of the experimental animals (50 mcL) and standards of known concentrations were introduced into the plate wells. Then, 50 mcL of detecting solution (reagent A) were introduced. After 1-hour incubation at 37° C., the wells were 3-fold rinsed, and 100 mcL of detecting solution (reagent B) were introduced into each well. Thereafter, the plate was incubated again at 37° C. for 30 minutes. The plate was rinsed with washing buffer 5 times, and 90 mcL of TMB substrate were introduced into each well. After 15-minute incubation at 37° C., 50 mcL of stop-solution were added. The reaction was read at 450 nm.

[1] = test system: vascular endothelial growth factor (VEGF); experiment: Serum vascular endothelial growth factor (ELISA) in the model of arterial hypertension with endothelial dysfunction; assay type: in vivo, rat; conditions: for VEGF: rat serum at the end of experiment, M ± m, n = 8
Method: as §1, §2, §3, §4
Quantitative measurement of vascular endothelial growth factor (VEGF) was performed with the use of ELISA with Bender MedSystems GmbH (Austria) kits. Calibration solution 100 mcL, serum samples of the experimental animals (50 mcL) and sample diluent (50 mcL) were introduced into the plate wells. Then, 50 mcL of biotin conjugate were added. After 2-hour incubation at 20° C., the wells were 6 time rinsed, and 100 mcL of streptavidin/horseradish peroxidase conjugate were introduced into each well. Thereafter, the plate was incubated again at 37° C. for 1 hour. The plate was 6 times rinsed with washing buffer, and 100 mcL of TMB substrate were introduced into each well. After 30-minute incubation at 20° C., 100 mcL of stop-solution were added. The reaction was read at 450 and 620 nm.

[2] = test system: sexual behaviour in male rats; experiment: Sexual activity of male rats with a receptive female, 30-minute observation after the treatment cycle; assay type: in vivo, rat; parameters: key to Ejaculation rate / Muzzling, licking of the females: + - present; − - absent; conditions: for Intromission rate / Mounting rate: 30-minute period; for Intromission rate / Mounting rate / Intersession interval / Mounting latency: M ± m; for Intromission rate / Mounting rate / Intersession interval / Mounting latency / Ejaculation rate / Muzzling, licking of the females: n = 8
Method: as §1, §2
Testing of the animals' sexual activity was performed after the end of treatment cycle. Tested male was placed into the testing chamber (40×40×30 cm), 5 minutes before the presentation of sexually receptive female rat. One female was placed next to each male. The assessment of sexual behaviour was performed in the dark room at blind red light. The components of sexual activity were visually recorded during a 30-minute period: mounting latency (ML—interval from the female placing into the cage to the first male mounting) and the rate of mountings, intromissions and ejaculations.

[3] = test system: purified sGC obtained of the rabbit's lungs; conditions: AS-6 100 mcmol/L, in vitro; cited from earlier work
[4] = test system: male Wistar rats, model of arterial hypertension with endothelial dysfunction; experiment: Blood pressure and heart rate in rat model of arterial hypertension with endothelial dysfunction (L-NAME + 3% NaCl); assay type: in vivo; conditions: for DBP / HR / SBP: M ± m, n = 8
Method: as §1
The experiments were performed with the use of 40 white male Wistar rats with the baseline body weight 220-240 g and 20 white virgin female rats 180-200 g. The animals were purchased from Rappolovo farm (Russian Academy of Medical Sciences, Saint-Petersburg). Besides mixed fodder, the rats received bread.
AS-6 substance (lot 080909) containing 101.0% of the active ingredient was used, according to the Protocol of Analysis No. 80-Pr, dated by 25 Sep. 2009 (Federal State Unitary Enterprise Special Technology and Construction Bureau “Tekhnolog”). The substance was used for preparation of solutions for daily oral administration based on the physiological saline.
The physiological saline was used as placebo. The solutions were administered daily through the atraumatic metallic feeding tube with fire-polished olive with the use of dosing syringe.
as §2
The measurement of the blood pressure in rats was performed with the use of the system for non-invasive blood pressure measurement for small animals within the complex Polygraph for electrophysiological studies (MP150WSW “BIOPAC Systems, Inc.”, USA.)
Rats were placed into special boxes. HR and BP (SBP and DBP) were recorded several minutes after the stabilization of the measured parameters. The parameters were measured on the tails with the use of piezoelectric probe and corresponding cuff, several minutes following animal placement on the thermostated sheet that maintained the temperature in the chambers within 26-27° C. The functional cardiovascular testing was performed before (at baseline) and after the administration of NOS inhibitor and at the end of treatment.

sGC in the aortic tissue = conditions: aorta of Wistar rats; cited from earlier work
[5] = test system: conscious SHR and Wistar rats; conditions: cited from earlier work
NO-synthase = conditions: 7-day-long administration of L-NAME; cited from earlier work
[6] = 7-day-long administration of L-NAME; cited from earlier work
[7] = test system: model of L-NAME-induced NO deficiency; conditions: cited from earlier work
[8] = AS-6 0.5 mg/kg oral daily, After treatment (Day 14)
[9] = AS-6 5 mg/kg oral daily, After treatment (Day 14)
[10] = AS-6 10 mg/kg oral daily, After treatment (Day 14)
[11] = arm AS-6 0.5 mg/kg, Baseline (Day 0), before L-NAME and treatment
[12] = arm AS-6 0.5 mg/kg, Post-dose L-NAME (Day 7), before treatment
[13] = arm AS-6 5 mg/kg, Baseline (Day 0), before L-NAME and treatment
[14] = arm AS-6 5 mg/kg, Post-dose L-NAME (Day 7), before treatment
[15] = arm AS-6 10 mg/kg, Baseline (Day 0), before L-NAME and treatment
[16] = arm AS-6 10 mg/kg, Post-dose L-NAME (Day 7), before treatment
[17] = Nicorandil (4 mg/kg) preconditioning

## [O-]c1n[n+](-c2nc[nH]n2)no1 [AS-6, 3-(3-[1,2,4]-triazolo)-oxatriazolium-5-olate]
Nitric oxide (NO); exceeded the level of treatment-naive animals at 10 mg/kg
  effect on nitric oxide (NO) production: dose-dependent increase of nitric oxide (NO) production
Nitric oxide (NO); AS-6 0.5 mg/kg
  NO: 8.83 ± 1.06 mcmol/l
Nitric oxide (NO); AS-6 5.0 mg/kg
  NO: 10.75 ± 0.55^ mcmol/l
Nitric oxide (NO); AS-6 10.0 mg/kg
  NO: 14.08 ± 1.25*^ mcmol/l
endothelin-1 (ET-1); most significant at 10 mg/kg, p=0.010 vs. control
  effect on endothelin-1 levels: significant favourable changes of endothelin-1 levels
endothelin-1 (ET-1); AS-6 0.5 mg/kg
  ET-1: 2.48 ± 0.50 pg/mL
endothelin-1 (ET-1); AS-6 5.0 mg/kg
  ET-1: 1.75 ± 0.48 pg/mL
endothelin-1 (ET-1); AS-6 10.0 mg/kg
  ET-1: 0.78 ± 0.29 pg/mL
[1]; 10 mg/kg dose: p=0.116 vs. control
  effect on vascular endothelial growth factor production: dose-dependent trend to the normalization of vascular endothelial growth factor production
[1]; AS-6 0.5 mg/kg
  VEGF: 46.01 ± 2.42 pg/mL
[1]; AS-6 5.0 mg/kg
  VEGF: 79.49 ± 19.75 pg/mL
[1]; AS-6 10.0 mg/kg
  VEGF: 91.95 ± 21.84 pg/mL
[2]; AS-6 10 mg/kg
  increase of number of animals with intromissions vs. control: 4 fold
  number of animals with intromissions: 50%
[2]; AS-6 0.5 and 5 mg/kg
  animals with increased mounting rate vs. control: 40%
  decrease of ML (mounting latency): 1.5 fold
  number of animals with intromissions: 25%
  rats with increased intromission rate: 25%
[2]; Azasidnon 0.5 mg/kg
  Intromission rate: 1.6 ± 1.4
  Mounting rate: 6.6 ± 2.8
  Intersession interval: 8.8 ± 0.9 min
  Mounting latency: 3.9 ± 0.9*^ min
  Ejaculation rate: −
  Muzzling, licking of the females: +
[2]; Azasidnon 5.0 mg/kg
  Intromission rate: 1.4 ± 1.1
  Mounting rate: 7.4 ± 3.1
  Intersession interval: 10.2 ± 2.2 min
  Mounting latency: 4.2 ± 1.9*^ min
  Ejaculation rate: −
  Muzzling, licking of the females: +
[2]; Azasidnon 10.0 mg/kg
  Intromission rate: 3.1 ± 1.5
  Mounting rate: 8.6 ± 2.6
  Intersession interval: 7.5 ± 1.9 min
  Mounting latency: 3.2 ± 1.4*^ min
  Ejaculation rate: −
  Muzzling, licking of the females: +
[2]; all doses
  influence on ejaculation: did not influence
[3]
  sGC activation compared to the basal activity: up to 30 fold
[4]; AS-6 0.5 mg/kg
  effect on SBP and DBP levels: did not affect SBP or DBP levels
[4]; [8]
  DBP: 111.9 ± 5.2 mm Hg
  HR: 420.0 ± 13.7
  SBP: 153.1 ± 7.3 mm Hg
[4]; AS-6 5 mg/kg
  effect on SBP and DBP levels: decrease of elevated DBP and unchanged elevated SBP
[4]; [9]
  DBP: 111.5 ± 7.9 mm Hg
  HR: 435.9 ± 28.9
  SBP: 141.9 ± 7.1 mm Hg
[4]; [10]
  DBP: 102.0 ± 3.2 mm Hg
  HR: 404.4 ± 17.6
  SBP: 123.4 ± 4.2 mm Hg
[4]; AS-6 10 mg/kg, vs. baseline values and experimental model, p<0.05
  effect on blood pressure: normalization of the blood pressure
[4]; [11]
  DBP: 98.7 ± 2.2 mm Hg
  HR: 417.6 ± 17.6
  SBP: 126.2 ± 2.5 mm Hg
[4]; [12]
  DBP: 113.8 ± 4.6 mm Hg
  HR: 351.8 ± 8.7
  SBP: 145.0 ± 3.1 mm Hg
[4]; [13]
  DBP: 97.9 ± 3.2 mm Hg
  HR: 428.2 ± 22.1
  SBP: 123.8 ± 3.4 mm Hg
[4]; [14]
  DBP: 117.0 ± 4.4 mm Hg
  HR: 376.0 ± 15.3
  SBP: 148.6 ± 4.5 mm Hg
[4]; [15]
  DBP: 98.5 ± 4.7 mm Hg
  HR: 393.6 ± 19.1
  SBP: 130.5 ± 4.6 mm Hg
[4]; [16]
  DBP: 120.1 ± 5.0 mm Hg
  HR: 357.1 ± 14.8
  SBP: 149.1 ± 3.4 mm Hg
[4]; control or experimental arm
  changes of the heart rate: No significant changes of the heart rate
[4]; peak at 10 mg/kg after 7 days of treatment
  effect on blood pressure, dose dependence: dose-dependent decrease of blood pressure
sGC in the aortic tissue
  activation of cGMP synthesis compared to baseline: up to 13 fold
[5]
  hypotensive effect: prolonged hypotensive effect

## COC(=O)[C@@H](N)CCCNC(=N)N[N+](=O)[O-].Cl [L-NAME, N-omega-nitro-L-arginine methyl ester hydrochloride]
NO-synthase
  mean diastolic BP: 146.0±4.2 mm Hg
  mean systolic blood pressure: 191.3±7.1 mm Hg
[6]
  increase of endothelial dysfunction ratio: 5 fold

## O=C(NCCO[N+](=O)[O-])c1cccnc1 [Nicorandil]
[7]; [17]
  CRP: 0.6 ± 0.1 mg/dL
  NO level: 6.2±0.25 mcmol/L
  endothelial dysfunction ratio (EDR): 1.76±0.18 AU
  myocardium contractility during resistance testing: 77.2±8.3%

## COc1ccc(Cl)cc1C(=O)NCCc1ccc(S(=O)(=O)NC(=O)NC2CCCCC2)cc1 [Glibenclamide]
[7]; Glibenclamide 4 mg/kg, blockade of ATP-dependent potassium channels
  effect on protective effects of preconditioning: neutralized protective effects
